# Measurements taken from patent publication US20260217691A1, “FOXM1 INHIBITORS AND THEIR USE IN TREATING CANCERS” (THE BOARD OF TRUSTEES OF THE UNIVERSITY OF ILLINOIS, priority 2022, published 2026).
# Biological target: T1, FOXM1 (Homo sapiens, UniProt Q08050)
# T1 sequence (Q08050 1-763): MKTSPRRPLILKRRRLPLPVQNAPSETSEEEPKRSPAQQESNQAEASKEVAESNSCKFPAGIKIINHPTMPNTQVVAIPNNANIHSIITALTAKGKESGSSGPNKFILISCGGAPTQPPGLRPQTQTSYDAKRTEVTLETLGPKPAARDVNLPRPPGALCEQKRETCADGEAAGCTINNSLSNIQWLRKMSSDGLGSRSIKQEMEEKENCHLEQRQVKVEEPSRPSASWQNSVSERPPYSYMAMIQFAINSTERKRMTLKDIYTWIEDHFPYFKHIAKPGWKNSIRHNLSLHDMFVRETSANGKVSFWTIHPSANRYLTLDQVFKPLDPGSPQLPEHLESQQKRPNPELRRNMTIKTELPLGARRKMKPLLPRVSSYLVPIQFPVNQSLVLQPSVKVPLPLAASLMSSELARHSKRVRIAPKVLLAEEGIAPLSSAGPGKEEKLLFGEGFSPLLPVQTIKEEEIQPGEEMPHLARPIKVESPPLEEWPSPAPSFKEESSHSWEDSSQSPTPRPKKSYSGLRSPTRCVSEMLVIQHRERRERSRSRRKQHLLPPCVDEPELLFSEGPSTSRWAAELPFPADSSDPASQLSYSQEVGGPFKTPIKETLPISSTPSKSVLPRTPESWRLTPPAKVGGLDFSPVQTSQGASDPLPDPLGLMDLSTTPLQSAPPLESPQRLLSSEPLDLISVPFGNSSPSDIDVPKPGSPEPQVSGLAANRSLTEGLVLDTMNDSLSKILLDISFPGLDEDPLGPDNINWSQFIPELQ
# Test: FOXM1 protein levels by immunoblotting in leukemia/AML cell lines
# Type: cell-based
# Set-up: Total protein samples obtain from treated cells were analyzed for FOXM1 protein levels via immunoblotting; endogenous in cells; host or cells: KG-1, HL-60, K562, THP-1 leukemia cell lines
# Description: [a] Leukemia cells, KG-1, HL-60 and K562 were treated with increasing concentrations of STL427944 for 24 hrs. […] [b] THP1 and KG-1 cells were treated with indicated concentrations of venetoclax and STL427944 alone or in combination for 24 hrs. [c] KG-1 and K562 cells were treated with indicated concentrations of cytarabine and STL427944 alone or in combination for 24 hrs.
# FIG. 8. STL427944 treatment of human leukemia cell lines suppress FOXM1 protein expression. (a) STL427944 treatment of human leukemia cell lines inhibit FOXM1 protein expression and sensitize cells to venetoclax treatment. […] (b) Stable shRNA-mediated FOXM1 knockdown prominently sensitizes KG-1 cells to cytotoxic effect of venetoclax. (c, d) combined treatment with STL427944 and venetoclax suppresses FOXM1 in KG-1 and THP-1 cells and synergistically promotes cytotoxic effects similarly to FOXM1 knockdown. Total protein was isolated from cells immediately after the treatment and analyzed via immunoblotting with FOXM1 antibodies). Apoptosis induction was estimated based on caspase-3 cleavage.
# FIGS. 9A and 9B: Novel FOXM1 inhibitor STL001 sensitizes Leukemia cells to chemotherapy agents. [a] Structural formula of novel FOXM1 inhibitor STL001. [b] Leukemia cells, KG-1, HL-60, and K562 were treated with increasing concentrations of STL001 for 24 hrs. […] [c] KG-1 cells were treated with indicated concentrations of Laptomycin B, Chloroquine, and STL001 for 24 hrs. […] [d] KG-1, HL-60, and K562 cells were treated with indicated concentrations of venetoclax and STL001 alone or in combination for 24 hrs. [e] KG-1, HL-60, and K562 cells were treated with indicated concentrations of cytarabine and STL alone or in combination for 24 hrs.
# FIGS. 13A-13H STL001 is a novel FOXM1 inhibitor that sensitizes leukemia cells to standard cytotoxic and bcl2 inhibitor therapies. FIG. 13A AML cell line KG-1 treated with precursor compound STL427944. FIG. 3B AML cell lines KG-1, HL-60, and K562 were treated with increasing concentrations of STL001 for 24 h. Total protein samples obtained from treated cells were analyzed for FOXM1 protein levels using immunoblotting; β-actin was used as the internal loading control. FIG. 13C KG-1, HL-60, and K562 cells were treated with indicated concentrations of venetoclax and STL001 alone or in combination for 24 h. FIG. 13D KG-1, HL-60, and K562 cells were treated with indicated concentrations of cytarabine and STL001 alone or in combination for 24 h. […] FIG. 13E KG-1 cells were treated with indicated concentrations of Leptomycin B, Chloroquine, and STL001 for 24 h. Total protein samples obtained from treated cells were analyzed for FOXM1 protein levels via immunoblotting; β-actin was used as an internal loading control. FIG. 13F KG-1 cell lines with shRNA knockdown of FOXM1 were treated with venetoclax and STL001 and compared to parental cells. FIG. 13G Real-time PCR-based expression profiling for canonical FOXM1 target genes was performed on primary AML mononuclear cells (n=5) treated ex vivo with STL001 5 μM for 24 h. Mean and standard error of the delta Ct for DMSO or treatment group are plotted for each gene. P-value is estimated by two-tailed paired t-test. Asterisks denote P<0.05. FIG. 13H Treatment of peripheral blood mononuclear cells with STL001 for 24 h followed by immunohistochemistry for FOXM1. Slides were scanned on an Aperio AT2 brightfield scanner and images were analyzed using HALO 2.0 software. Hematoxylin counterstain was used to segment nuclei within the ROIs and to establish an accurate cell count. Percent cells with nuclear FOXM1 expression compared between DMSO and STL001 treated cells. P-value is based on one-tailed paired t-test.
smiles,measurement,setting,value
O=C(Oc1cccc(-c2ccn(-c3nc(Nc4ccccc4)nc(N4CCOCC4)n3)n2)c1)c1ccco1 [STL001],concentration suppressing FOXM1,AML cell lines,0.5 µM
same,FOXM1 localization,AML cells,localizes FOXM1 to the cytoplasm
same,lowest concentration with dose-dependent inhibition of FOXM1 protein expression,"KG-1, HL-60, K562, 24 h",500 nM
same,improvement in efficiency to suppress FOXM1 / increased potency as FOXM1 inhibitor versus STL427944,"estimated, relative to STL427944",up to 50 fold
same,FOXM1 protein levels,"leukemia cell lines, increasing concentrations, 24 h",dose-dependent inhibition of FOXM1 protein expression
